In patent US8859250B2, “Crystal structure of glutaminyl cyclase” (Probiodrug AG, priority 2010, dated 2014):

Experiments:
Solubility in water = type: physicochemical
murine QC (mQC) = target: T1, murine QC (mQC) (Mus musculus, UniProt Q9CYK2); assay: Ki-values of selected inhibitors for murine QC; type: biochemical; details: murine glutaminyl cyclase
T1 construct: made in house; host or cells: Pichia pastoris (vector pPICZalphaB, secreted)
T1 sequence (Q9CYK2 36-362): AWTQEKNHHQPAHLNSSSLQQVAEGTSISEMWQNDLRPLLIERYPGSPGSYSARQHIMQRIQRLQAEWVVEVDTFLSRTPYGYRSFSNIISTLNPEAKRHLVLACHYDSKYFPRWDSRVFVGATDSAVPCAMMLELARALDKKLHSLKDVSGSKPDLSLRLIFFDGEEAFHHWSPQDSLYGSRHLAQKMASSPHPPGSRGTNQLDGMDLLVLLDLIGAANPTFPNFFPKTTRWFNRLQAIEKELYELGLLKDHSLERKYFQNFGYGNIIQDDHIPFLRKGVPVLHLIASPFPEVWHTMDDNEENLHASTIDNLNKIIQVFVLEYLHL

| Compound | solubility in water (Solubility in water) | Ki (murine QC (mQC)) |
| --- | --- | --- |
| COc1ccc(NC(=S)NCCCn2ccnc2)cc1OC [Inhibitor A, 1-(3-(1H-Imidazol-1-yl)propyl)-3-(3,4-dimethoxyphenyl)thiourea] | soluble in water | 0.173 µM |
| Cc1cc(C)c(N/C(=N/C#N)NCCCn2cncc2C)c(C)c1 [Inhibitor C] |  | 0.0513 µM |
